Key:
[1] = test system: KRAS; test: Alpha Screen PPI assays, summary over KRAS interactions (SOS1, CRAF, PI3Kα); assay type: biochemical, human
From the text: Using biochemical assays, we investigated whether 1 inhibited 3 of the 4 PPIs important for KRAS cycling (Fig. 5 A, i–iii). Namely, 1) GDP-KRAS interaction with the catalytic site of SOS ([33]), 2) GTP-KRAS interaction with the allosteric site of SOS ([34]), and 3) GTP-KRAS interaction with downstream effectors (CRAF and PI3Kα). We were unable to establish a biochemical assay for the fourth intervention point, namely, 4) GTP-KRAS interaction with its GAPs (Fig. 5 A, iv). As a reference compound for these assays, we used the KRAS^G12C-specific covalent inhibitor ARS-1620 ([35]). Compound 1 inhibited all 3 RAS cycle intervention points (1 to 3) in a dose-dependent manner (Fig. 5 B–E) in the range of 100 to 770 nM (SI Appendix, Table S6).
217 The coordinates and structure factors of the structures have been deposited at the
218 Protein Data Bank with the accession codes PDB Code 6GJ5, 6GJ6, 6GJ7, 6GJ8.
(§1) 221 Measurements of various protein–protein interactions were performed using the Alpha
(§2) 222 Screen technology developed by Perkin Elmer. Recombinant RAS proteins (H-, N-, K-
(§3) 223 RAS variants; all KRAS variants are based on KRAS isoform 4B (uniprot id P01116-2);
(§4) 224 KRAS (G12D) 1-169, N-terminal 6His-tag, C-terminal avi-tag was from Xtal
(§5) 225 BioStructures, Inc., KRAS (G12C) 1-169, C-terminal avi-tag, biotinylated, mutations:
(§6) 226 C51S, C80L, C118S, NRAS(wt) 1-172, C-terminal avi-tag, biotinylated; HRAS(wt) 1-
(§7) 227 166, C-terminal avi-tag, biotinylated). Biotinylation was performed in vitro with
(§8) 228 recombinant BirA biotin-protein ligase as recommended by the manufacturer (Avidity
(§9) 229 LLC, Aurora, Colorado, USA). Interacting proteins such as SOS1 (564-1049, N-terminal
(§10) 230 GST-tag, TEV cleavage site), cRaf (1-303, N-terminal GST-tag, TEV cleavage site) and
231 PI3KA- RBD (160-317, N-term-HIS_GST-tag) were expressed as glutathione S […]
(§11) 245 for 60 min in the dark at room temperature. Single oxygen induced fluorescence was
(§12) 246 measured at an Enspire multimode plate reader (Perkin Elmer) according to the
247 manufacturer’s recommendations. Data were analyzed using the GraphPad Prism data […]

[2] = molecular target: T1, GDP-KRASG12D::SOS1 (Homo sapiens, UniProt P01116, G12D); test: Alpha Screen PPI assay; assay type: biochemical; conditions: for IC50: Alpha Screen, duplicate
T1 construct: KRAS (G12D) 1-169, N-terminal 6His-tag, C-terminal avi-tag was from Xtal; 6His-tag (N); purchased Xtal BioStructures, Inc
Procedure: as §1, §2, §3, §4, §5, §6, §7, §8, §9, §10
(§13) 231 PI3KA- RBD (160-317, N-term-HIS_GST-tag) were expressed as glutathione S
(§14) 232 transferase (GST) fusions. Accordingly, the Alpha Screen beads were glutathione coated
(§15) 233 Alpha Lisa acceptor beads (Perkin Elmer AL 109 R) and Alpha Screen Streptavidin
(§16) 234 conjugated donor beads (Perkin Elmer 6760002L). Nucleotides were purchased from
(§17) 236 interaction assays were carried out in PBS, containing 0.1% bovine serum albumin,
(§18) 237 0,05% Tween-20 and 10 µM of the corresponding nucleotide. Assays were carried out in
(§19) 238 white ProxiPlate-384 Plus plates (Perkin Elmer #6008280) in a final volume of 20 µL. In
(§20) 239 brief, biotinylated RAS proteins (10 nM final concentration) and GST-SOS1, GST-PI3K
(§21) 240 or GST-CRAF (10 nM final) were mixed with glutathione acceptor beads (5 µg/mL final
(§22) 241 concentration) in buffer, containing the corresponding nucleotides (GDP or GTP for
(§23) 242 assays containing SOS1, only GTP for interaction assays containing PI3K or CRAF) and
(§24) 243 were incubated for 30 min at room temperature. After addition of streptavidin donor
(§25) 244 beads (5 µg/mL final concentration) under green light, the mixture was further incubated
as §11, §12
(§26) 247 manufacturer’s recommendations. […]

[3] = molecular target: GTP-KRASG12C::SOS1 (Homo sapiens, UniProt P01116, C118S/C51S/C80L/G12C); test: Alpha Screen PPI assay; assay type: biochemical; conditions: duplicate
Procedure: as §1, §2, §3, §4, §5, §6, §7, §8, §9, §10, §13, §14, §15, §16, §17, §18, §19, §20, §21, §22, §23, §24, §25, §11, §12, §26

[4] = molecular target: GTP-KRASG12C::PI3Kα (Homo sapiens, UniProt P01116, C118S/C51S/C80L/G12C); test: Alpha Screen PPI assay; assay type: biochemical; conditions: duplicate, read-out: IC50 GTP-KRASG12C::PI3K
Procedure: as §1, §2, §3, §4, §5, §6, §7, §8, §9, §10, §13, §14, §15, §16, §17, §18, §19, §20, §21, §22, §23, §24, §25, §11, §12, §26

[5] = molecular target: GTP-KRASG12C::CRAF (Homo sapiens, UniProt P01116, C118S/C51S/C80L/G12C); test: Alpha Screen PPI assay; assay type: biochemical; conditions: duplicate
Procedure: as §1, §2, §3, §4, §5, §6, §7, §8, §9, §10, §13, §14, §15, §16, §17, §18, §19, §20, §21, §22, §23, §24, §25, §11, §12, §26

[6] = molecular target: GDP-KRASG12C::SOS1 (Homo sapiens, UniProt P01116, C118S/C51S/C80L/G12C); test: Alpha Screen PPI assay; assay type: biochemical; conditions: for IC50: Alpha Screen, duplicate
Procedure: as §1, §2, §3, §4, §5, §6, §7, §8, §9, §10, §13, §14, §15, §16, §17, §18, §19, §20, §21, §22, §23, §24, §25, §11, §12, §26

SMILES | activity in all GTP-dependent KRAS assays [1] | inhibition of GDP-dependent interaction with G12D instead of G12C [2] | IC50 [2] | IC50 [3] | IC50 [4] | IC50 [5] | activity on the GDP-dependent KRAS^G12C::SOS1 interaction [6] | IC50 [6] | IC50 ([1]; GDP-KRAS::SOS, GTP-KRAS::SOS, GTP-KRAS::effectors (CRAF, PI3Kα), read-out: inhibition of all 3 RAS cycle intervention points, range)
C=CC(=O)N1CCN(c2ncnc3c(F)c(-c4c(O)cccc4F)c(Cl)cc23)CC1 [ARS-1620, reference compound] | inactive | lost the ability to inhibit | > 10000 nM | > 10000 nM | > 10000 nM | > 10000 nM | displayed activity | 590 nM | 
Cn1cnc(Cn2ccc3ccc(CNCc4[nH]c5ccccc5c4[C@H]4NC(=O)c5ccc(O)cc54)cc32)c1 [Compound 1] |  | maintained the inhibitory function | 260 nM | 360 nM | 100 nM | 180 nM |  | 450 nM | 100 to 770 nM

Reference: PMC6689897, “Drugging an undruggable pocket on KRAS” (Proceedings of the National Academy of Sciences of the …, 2019)
